Source: patent US20110118229A1, “2-ARYLMETHYLAZETIDINE-CARBAPENEM-3-CARBOXYLIC ACID ESTER DERIVATIVE OR ITS SALT, PROCESS FOR THE PREPARATION THEREOF AND PHARMACEUTICAL COMPOSITION COMPRISING THE SAME” (KUKJE PHARM. IND. CO., LTD., priority 2007, published 2011)
Converted amounts (≈) assume the structure as drawn.

What was measured:
[1] = Test of Pharmacokinetics in mice (blood concentration by bioassay); details: I.C.R mice, 40 mg/kg; for AUC (area under blood concentration curve): bioassay
Method: The pharmacokinetics of the compounds of the present invention was determined using mice. […] Blood samples were collected from mice tails at 10 min., 20 min., 30 min., 45 min., 1 hour, 1.5 hours, 2 hours, 3 hours and 4 hours after the administration. […] Blood samples were collected from mice tails in the same manner described above.
The concentrations of each compound in blood were measured using bioassay methods: Agar plate was prepared with agar medium containing 1% Streptococcus Pyogenes 77A culture solution, and the blood samples and the diluted standards (each of which were obtained by dilution of the already-known concentration by two times) were added to wells formed on the plates. The plate was stored at 4° C. for 1 hour to is allow the sample to spread, and incubated at 37° C. for 18 hours. Diameters of each inhibition-circle were measured and then the concentration of the compounds in blood was calculated, based on the calibration curve obtained from the diluted standards.

I.C.R. mice = assay: Acute Toxicity Test, oral, mice; format: in vivo; details: observed 7 days
Method: The acute toxicity of the compound of Example 1 was tested using several groups of I.C.R. mice each of 10 mice. 500 mg/kg, 1,000 mg/kg, and 2,000 mg/kg doses of the compound of Example 1 were orally administered. […] Thus, LD50 was placed at a level higher than 2,000 mg/kg. The compound of Example 1 is thus a largely non-toxic antibiotic.
In addition, acute toxicity of the compounds of Examples 10 and 17 was tested using two groups of I.C.R. mice each of 5 mice/2 groups. 1,000 mg/kg, 2,000 mg/kg, and 3,000 mg/kg doses of the compounds of Examples 10 to 17 were orally administered. […] Thus, LD50 was placed at a level higher than 3,000 mg/kg. Therefore, the compounds of Examples 10 to and 17 are non-toxic antibiotics.

[2] = tested on: Staphylococcus aureus ATCC 29213; assay: Minimum Inhibitory Concentration (MIC); format: cell-based
Description: (§1) The metabolite has a wide spectrum of antibacterial activities against Gram-negative and Gram-positive bacteria and excellent antibacterial activities against resistant bacteria such as methicillin-resistant Staphylococcus aurus (MRSA) and quinolone-resistant strains (QRS), as in WO2006/025634 by the present inventors.

[3] = tested on: Streptococcus pneumoniae Pen. R (4); assay: Minimum Inhibitory Concentration (MIC); format: cell-based; details: 4 strains
Description: as §1

GBBS ATCC 12386 = assay: Minimum Inhibitory Concentration (MIC); format: cell-based
Description: as §1

[4] = tested on: Klebsiella pneumoniae ATCC 13883; assay: Minimum Inhibitory Concentration (MIC); format: cell-based
Description: as §1

[5] = tested on: Streptococcus faecium (1); assay: Minimum Inhibitory Concentration (MIC); format: cell-based; details: 1 strain
Description: as §1

[6] = tested on: Moraxella catarrhalis AMP S(3); assay: Minimum Inhibitory Concentration (MIC); format: cell-based; details: 3 strains
Description: as §1

[7] = tested on: Enterobacter cloacae P 99(2)3; assay: Minimum Inhibitory Concentration (MIC); format: cell-based
Description: as §1

[8] = tested on: Salmonella typhimurium 179; assay: Minimum Inhibitory Concentration (MIC); format: cell-based; details: strain 179
Description: as §1

Klebsiella oxytoca 1082 = assay: Minimum Inhibitory Concentration (MIC); format: cell-based; details: strain 1082
Description: as §1

[9] = tested on: Enterobacter cloacae ATCC 13880; assay: Minimum Inhibitory Concentration (MIC); format: cell-based
Description: as §1

[10] = tested on: Streptococcus ATCC 496 (4); assay: Minimum Inhibitory Concentration (MIC); format: cell-based
Description: as §1

[11] = tested on: Staphylococcus aureus (2); assay: Minimum Inhibitory Concentration (MIC); format: cell-based; details: 2 strains
Description: as §1

[12] = tested on: Streptococcus pneumoniae Pen. S (4); assay: Minimum Inhibitory Concentration (MIC); format: cell-based; details: 4 strains
Description: as §1

[13] = tested on: Staphylococcus aureus (10), MRSA; assay: Minimum Inhibitory Concentration (MIC); format: cell-based; parameters: unit not given here; details: 10 strains
Description: as §1

[14] = tested on: Moraxella catarrhalis AMP R(3); assay: Minimum Inhibitory Concentration (MIC); format: cell-based; parameters: unit not given here; details: 3 strains
Description: as §1

[15] = tested on: Staphylococcus aureus (5), QRS; assay: Minimum Inhibitory Concentration (MIC); format: cell-based; parameters: unit not given here; details: 5 strains
Description: as §1

[16] = tested on: Streptococcus pyogenes (2); assay: Minimum Inhibitory Concentration (MIC); format: cell-based; parameters: unit not given here; details: 2 strains
Description: as §1

[17] = tested on: Klebsiella pneumoniae (4); assay: Minimum Inhibitory Concentration (MIC); format: cell-based; parameters: unit not given here; details: 4 strains
Description: as §1

[18] = tested on: Streptococcus Levo. S (4); assay: Minimum Inhibitory Concentration (MIC); format: cell-based; parameters: unit not given here; details: 4 strains
Description: as §1

[19] = tested on: Streptococcus Levo. R (4); assay: Minimum Inhibitory Concentration (MIC); format: cell-based; parameters: unit not given here; details: 4 strains
Description: as §1

Escherichia coli (4) = assay: Minimum Inhibitory Concentration (MIC); format: cell-based; parameters: unit not given here; details: 4 strains
Description: as §1

[20] = Chemical Stability Test (HPLC purity on storage); format: physicochemical
Method: 500 mg of the compound prepared in Example 10 was charged into a glass bottle, and HPLC purities of the compound were measured at the condition of 40° C. and a humidity of 75%, at 1 week, 2 week, 3 week, and 1 month. The HPLC purities were obtained by comparing each of the measured HPLC amounts with the initial HPLC amount.

[21] = oral, 500, 1,000 and 2,000 mg/kg
[22] = oral, 1,000, 2,000 and 3,000 mg/kg

Compound: C[C@@H](O)[C@H]1C(=O)N2C(C(=O)OCOC(=O)C(C)(C)C)=C(SC3CN(Cc4ccc(F)cc4)C3)[C@H](C)[C@H]12 [Example 1, pivaloyloxymethyl(1R,5S,6S)-2-[(1-(4-fluorobenzyl)azetidin-3-yl)thio]-6-[(R)-1-hydroxyethyl]-1-methyl-carbapen-2-em-3-carboxylate]
- ratio of oral/subcutaneous AUCs [1]: about 52%
- Cmax (maximum blood concentration) ([1]; PO): 88.1 µg/mL
- T1/2 (half time of blood concentration) ([1]; PO): 0.931 h
- Tmax (time at the point of maximum blood concentration) ([1]; PO): 0.38 h
- AUC (area under blood concentration curve) ([1]; PO): 117000 ng·h/mL
- Cmax (maximum blood concentration) ([1]; SC): 97.9 µg/mL
- T1/2 (half time of blood concentration) ([1]; SC): 6.28 h
- Tmax (time at the point of maximum blood concentration) ([1]; SC): 1.76 h
- AUC (area under blood concentration curve) ([1]; SC): 226000 ng·h/mL
- LD50 (I.C.R. mice; [21]): higher than 2,000 mg/kg
- body temperature change and weight change (I.C.R. mice; [21]): no distinct body temperature change nor weight loss were observed
- death (I.C.R. mice; [21]): no mice died

Compound: C[C@@H](O)[C@H]1C(=O)N2C(C(=O)O)=C(SC3CN(Cc4ccc(F)cc4)C3)[C@H](C)[C@H]12 [Preparation Example 4, (1R,5S,6S)-2-[(1-(4-fluorobenzyl)azetidin-3-yl)thio]-6-[(R)-1-hydroxyethyl]-1-methyl-carbapen-2-em-3-carboxylic acid]
- MIC [2]: 0.015 µg/mL (≈ 0.0369 µM)
- MIC [3]: 0.12 µg/mL (≈ 0.295 µM)
- MIC (GBBS ATCC 12386): 0.03 µg/mL (≈ 0.0738 µM)
- MIC [4]: 0.122 µg/mL (≈ 0.301 µM)
- MIC [5]: 1.56 µg/mL (≈ 3.85 µM)
- MIC [6]: < 0.008 µg/mL
- MIC [7]: 0.049 µg/mL (≈ 0.121 µM)
- MIC [8]: 0.049 µg/mL (≈ 0.121 µM)
- MIC (Klebsiella oxytoca 1082): 0.049 µg/mL (≈ 0.121 µM)
- MIC [9]: 2 µg/mL (≈ 4.92 µM)
- MIC [10]: 0.03 µg/mL (≈ 0.0738 µM)
- MIC [11]: 0.002 µg/mL (≈ 0.00492 µM)
- MIC [12]: < 0.008 µg/mL
- Cmax (maximum blood concentration) ([1]; PO): 3.97 µg/mL
- T1/2 (half time of blood concentration) ([1]; PO): 1.32 h
- Tmax (time at the point of maximum blood concentration) ([1]; PO): 0.56 h
- AUC (area under blood concentration curve) ([1]; PO): 8280 ng·h/mL
- Cmax (maximum blood concentration) ([1]; SC): 68.5 µg/mL
- T1/2 (half time of blood concentration) ([1]; SC): 0.76 h
- Tmax (time at the point of maximum blood concentration) ([1]; SC): 0.38 h
- AUC (area under blood concentration curve) ([1]; SC): 83240 ng·h/mL
- MIC [13]: 0.025-3.125
- MIC [14]: 0.03-0.12
- MIC [15]: 0.049-0.391
- MIC [16]: 0.013-0.025
- MIC [17]: 0.06-0.25
- MIC [18]: <0.008-0.25
- MIC [19]: 0.006-0.12
- MIC (Escherichia coli (4)): 0.025-0.098

Compound: C[C@@H](O)[C@H]1C(=O)N2C(C(=O)OCOC(=O)C(C)(C)C)=C(SC3CN(Cc4ccc(F)cc4)C3)[C@H](C)[C@H]12.O=P(O)(O)O [Example 10, Phosphoric Acid Salt of pivaloyloxymethyl(1R,5S,6S)-2-[(1-(4-fluorobenzyl)azetidin-3-yl)thio]-6-[(R)-1-hydroxyethyl]-1-methyl-carbapen-2-em-3-carboxylate]
- HPLC Purity ([20]; 40° C., humidity 75%, 1 month): 99.69%
- HPLC Purity ([20]; 40° C., humidity 75%, 1 week): 99.85%
- HPLC Purity ([20]; 40° C., humidity 75%, 2 week): 99.78%
- HPLC Purity ([20]; 40° C., humidity 75%, 3 week): 99.74%
- HPLC Purity ([20]; Initial): 99.83%
- body temperature change and weight change (I.C.R. mice; [22]): no body distinct temperature change nor weight loss were observed
- death (I.C.R. mice; [22]): no mice died

Compound: C[C@@H](O)[C@H]1C(=O)N2C(C(=O)OCOC(=O)C(C)(C)C)=C(SC3CN(Cc4ccc(F)cc4)C3)[C@H](C)[C@H]12.O=C(O)/C=C/C(=O)O [Example 17, Fumaric Acid Salt of pivaloyloxymethyl(1R,5S,6S)-2-[(1-(4-fluorobenzyl)azetidin-3-yl)thio]-6-[(R)-1-hydroxyethyl]-1-methyl-carbapen-2-em-3-carboxylate]
- body temperature change and weight change (I.C.R. mice; [22]): no body distinct temperature change nor weight loss were observed
- death (I.C.R. mice; [22]): no mice died

Compound: 1-(isopropyloxycarbonyloxy)ethyl(1R,5S,6S)-2-[(1-(4-fluorobenzyl)azetidin-3-yl)thio]-6-[(R)-1-hydroxyethyl]-1-methyl-carbapen-2-em-3-carboxylate [Example 2]
- ratio of oral/subcutaneous AUCs [1]: about 54%
- Cmax (maximum blood concentration) ([1]; PO): 72.8 µg/mL
- T1/2 (half time of blood concentration) ([1]; PO): 1.15 h
- Tmax (time at the point of maximum blood concentration) ([1]; PO): 1.00 h
- AUC (area under blood concentration curve) ([1]; PO): 94800 ng·h/mL
- Cmax (maximum blood concentration) ([1]; SC): 66.4 µg/mL
- T1/2 (half time of blood concentration) ([1]; SC): 3.92 h
- Tmax (time at the point of maximum blood concentration) ([1]; SC): 0.75 h
- AUC (area under blood concentration curve) ([1]; SC): 174000 ng·h/mL

Compound: CC(OC(=O)OC1CCCCC1)OC(=O)C1=C(SC2CN(Cc3ccc(F)cc3)C2)[C@H](C)[C@@H]2[C@@H]([C@@H](C)O)C(=O)N12 (stereo partly drawn) [Example 3, 1-(cyclohexyloxycarbonyloxy)ethyl(1R,5S,6S)-2-[(1-(4-fluorobenzyl)azetidin-3-yl)thio]-6-[(R)-1-hydroxyethyl]-1-methyl-carbapen-2-em-3-carboxylate]
- ratio of oral/subcutaneous AUCs [1]: about 113%
- Cmax (maximum blood concentration) ([1]; PO): 39.0 µg/mL
- T1/2 (half time of blood concentration) ([1]; PO): 1.43 h
- Tmax (time at the point of maximum blood concentration) ([1]; PO): 0.59 h
- AUC (area under blood concentration curve) ([1]; PO): 64500 ng·h/mL
- Cmax (maximum blood concentration) ([1]; SC): 16.2 µg/mL
- T1/2 (half time of blood concentration) ([1]; SC): 1.05 h
- Tmax (time at the point of maximum blood concentration) ([1]; SC): 2.50 h
- AUC (area under blood concentration curve) ([1]; SC): 56900 ng·h/mL
